Assay results reported in article PMC5218480 (PLoS ONE, 2017).

Test system: MV-4-11 cells
Assay: Gene expression microarray analysis (Affymetrix PrimeView) and GSEA
Format: cell-based, human
Parameters: RFU PODN (11730768_x_at) / Fold change /veh PODN (11730768_x_at) / RFU LINC00158 (11744669_a_at) / Fold change /veh LINC00158 (11744669_a_at) / RFU DUSP10 (11751237_a_at) / Fold change /veh DUSP10 (11751237_a_at) / RFU ID3 (11757404_x_at) / Fold change /veh ID3 (11757404_x_at) / RFU PLEKHG5 (11737974_s_at) / Fold change /veh PLEKHG5 (11737974_s_at) / RFU LRRC4B (11730491_at) / Fold change /veh LRRC4B (11730491_at) / RFU GIMAP4 (11747438_a_at) / Fold change /veh GIMAP4 (11747438_a_at) / RFU KRT8 (11758183_x_at) / Fold change /veh KRT8 (11758183_x_at) / RFU CNN1 (11734310_a_at) / Fold change /veh CNN1 (11734310_a_at) / RFU VPS37D (11726825_at) / Fold change /veh VPS37D (11726825_at) / RFU C10orf10 (11716522_x_at) / Fold change /veh C10orf10 (11716522_x_at) / RFU KIR2DL2 /// KIR2DL4 /// KIR2DL5A /// KIR2DL5B /// KIR2DS1 /// KIR2DS2 /// KIR2DS3 /// KIR2DS4 /// KIR3DL3 /// KIR3DL3 /// KIR3DS1 (11738374_at) / Fold change /veh KIR2DL2 /// KIR2DL4 /// KIR2DL5A /// KIR2DL5B /// KIR2DS1 /// KIR2DS2 /// KIR2DS3 /// KIR2DS4 /// KIR3DL3 /// KIR3DL3 /// KIR3DS1 (11738374_at) / RFU C1QL1 (11718748_at) / Fold change /veh C1QL1 (11718748_at) / RFU TMPRSS4 (11747572_a_at) / Fold change /veh TMPRSS4 (11747572_a_at) / RFU HAMP (11756126_x_at) / Fold change /veh HAMP (11756126_x_at) / RFU RNFT2 (11725882_a_at) / Fold change /veh RNFT2 (11725882_a_at) / RFU NR4A2 (11747474_a_at) / Fold change /veh NR4A2 (11747474_a_at) / RFU ABCC12 (11746883_a_at) / Fold change /veh ABCC12 (11746883_a_at) / RFU TMEM136 (11760407_x_at) / Fold change /veh TMEM136 (11760407_x_at) / RFU CLDN22 /// WWC2 (11732394_at) / Fold change /veh CLDN22 /// WWC2 (11732394_at) / RFU HLA-DPB1 (11760878_x_at) / Fold change /veh HLA-DPB1 (11760878_x_at) / RFU SPINT1 (11716480_a_at) / Fold change /veh SPINT1 (11716480_a_at) / RFU GAP43 (11754022_s_at) / Fold change /veh GAP43 (11754022_s_at) / RFU A4GNT (11735810_at) / Fold change /veh A4GNT (11735810_at) / RFU PRB3 (11715151_x_at) / Fold change /veh PRB3 (11715151_x_at) / RFU TUBB4B (11761932_at) / Fold change /veh TUBB4B (11761932_at) / RFU CAPN14 (11732068_a_at) / Fold change /veh CAPN14 (11732068_a_at) / RFU TMCC2 (11721928_a_at) / Fold change /veh TMCC2 (11721928_a_at) / RFU IRGQ (11745062_a_at) / Fold change /veh IRGQ (11745062_a_at) / RFU FAM174B (11720279_a_at) / Fold change /veh FAM174B (11720279_a_at) / RFU TMPRSS4 (11748680_a_at) / Fold change /veh TMPRSS4 (11748680_a_at) / RFU FAM212B (11763350_a_at) / Fold change /veh FAM212B (11763350_a_at) / RFU PLEKHG5 (11743358_a_at) / Fold change /veh PLEKHG5 (11743358_a_at) / RFU ZSCAN30 (11745921_a_at) / Fold change /veh ZSCAN30 (11745921_a_at) / RFU CMKLR1 (11741424_a_at) / Fold change /veh CMKLR1 (11741424_a_at) / RFU LOC101060620 /// MAPK8IP1 (11723275_at) / Fold change /veh LOC101060620 /// MAPK8IP1 (11723275_at) / RFU SPTSSB (11747773_x_at) / Fold change /veh SPTSSB (11747773_x_at) / RFU PRSS12 (11739890_at) / Fold change /veh PRSS12 (11739890_at) / RFU BIN1 (11741810_x_at) / Fold change /veh BIN1 (11741810_x_at) / RFU WNT11 (11732464_a_at) / Fold change /veh WNT11 (11732464_a_at) / RFU C10orf10 (11716521_a_at) / Fold change /veh C10orf10 (11716521_a_at) / RFU C5orf56 (11738089_at) / Fold change /veh C5orf56 (11738089_at) / RFU CYB561 (11721691_x_at) / Fold change /veh CYB561 (11721691_x_at) / RFU ANKRD19P (11752326_a_at) / Fold change /veh ANKRD19P (11752326_a_at) / RFU OR2T12 /// OR2T33 /// OR2T8 (11738714_s_at) / Fold change /veh OR2T12 /// OR2T33 /// OR2T8 (11738714_s_at) / RFU VCAN (11748164_a_at) / Fold change /veh VCAN (11748164_a_at) / RFU JSRP1 (11732532_at) / Fold change /veh JSRP1 (11732532_at) / RFU KRTAP10-11 (11738290_x_at) / Fold change /veh KRTAP10-11 (11738290_x_at) / RFU MYO3A (11730013_a_at) / Fold change /veh MYO3A (11730013_a_at) / RFU EBF3 (11725865_a_at) / Fold change /veh EBF3 (11725865_a_at) / RFU CAMK2N1 (11719241_x_at) / Fold change /veh CAMK2N1 (11719241_x_at) / RFU C5orf56 (11738088_a_at) / Fold change /veh C5orf56 (11738088_a_at) / RFU OLFML3 (11715873_a_at) / Fold change /veh OLFML3 (11715873_a_at) / RFU LOC100653217 /// NTM (11731650_a_at) / Fold change /veh LOC100653217 /// NTM (11731650_a_at) / RFU MAPK11 (11762145_a_at) / Fold change /veh MAPK11 (11762145_a_at) / RFU FIZ1 (11724087_x_at) / Fold change /veh FIZ1 (11724087_x_at) / RFU OASL (11726364_x_at) / Fold change /veh OASL (11726364_x_at) / RFU SOX15 (11748057_x_at) / Fold change /veh SOX15 (11748057_x_at) / RFU CD79A (11719716_a_at) / Fold change /veh CD79A (11719716_a_at) / RFU HIST1H1D (11736915_at) / Fold change /veh HIST1H1D (11736915_at) / RFU CASKIN2 (11723855_a_at) / Fold change /veh CASKIN2 (11723855_a_at) / RFU LOC730098 (11760151_x_at) / Fold change /veh LOC730098 (11760151_x_at) / RFU OR4N2 (11742367_at) / Fold change /veh OR4N2 (11742367_at) / RFU PRRT2 (11749266_a_at) / Fold change /veh PRRT2 (11749266_a_at) / RFU SNX32 (11753110_a_at) / Fold change /veh SNX32 (11753110_a_at) / RFU CDHR5 (11726645_a_at) / Fold change /veh CDHR5 (11726645_a_at) / RFU RCAN1 (11760418_a_at) / Fold change /veh RCAN1 (11760418_a_at) / RFU FAM167A (11723789_a_at) / Fold change /veh FAM167A (11723789_a_at) / RFU FAM26E (11764081_at) / Fold change /veh FAM26E (11764081_at) / RFU ISYNA1 (11749810_s_at) / Fold change /veh ISYNA1 (11749810_s_at) / RFU ACY1 (11761880_at) / Fold change /veh ACY1 (11761880_at) / RFU 11764098_at / Fold change /veh 11764098_at / RFU SAMD14 (11745864_x_at) / Fold change /veh SAMD14 (11745864_x_at) / RFU NPB (11741838_a_at) / Fold change /veh NPB (11741838_a_at) / RFU TMPRSS6 (11731388_a_at) / Fold change /veh TMPRSS6 (11731388_a_at) / RFU KRTAP10-2 (11738614_at) / Fold change /veh KRTAP10-2 (11738614_at) / RFU ARHGAP8 /// PRR5-ARHGAP8 (11727945_x_at) / Fold change /veh ARHGAP8 /// PRR5-ARHGAP8 (11727945_x_at) / RFU KRTAP5-7 /// NADSYN1 (11734609_at) / Fold change /veh KRTAP5-7 /// NADSYN1 (11734609_at) / RFU RASL12 (11751679_a_at) / Fold change /veh RASL12 (11751679_a_at) / RFU CDKN2B (11736163_a_at) / Fold change /veh CDKN2B (11736163_a_at) / RFU PRF1 (11729649_at) / Fold change /veh PRF1 (11729649_at) / RFU, ZNF638 /// ZNF638-IT1 / Fold change vs veh, ZNF638 /// ZNF638-IT1 / RFU, PANK3 / Fold change vs veh, PANK3 / RFU, SH3YL1 / Fold change vs veh, SH3YL1 / RFU, ZEB2 / Fold change vs veh, ZEB2 / RFU, NRIP1 / Fold change vs veh, NRIP1 / RFU, PTTG1IP / Fold change vs veh, PTTG1IP / RFU, CAPN2 / Fold change vs veh, CAPN2 / RFU, MED14 / Fold change vs veh, MED14 / RFU, SNORA58 / Fold change vs veh, SNORA58 / RFU, C1orf63 / Fold change vs veh, C1orf63 / RFU, LRRFIP1 / Fold change vs veh, LRRFIP1 / RFU, NDUFAF7 / Fold change vs veh, NDUFAF7 / RFU, SLC12A2 / Fold change vs veh, SLC12A2 / RFU, IBTK / Fold change vs veh, IBTK / RFU, ESF1 / Fold change vs veh, ESF1 / Fold change vs veh, TMEM50B / RFU, TAOK1 / Fold change vs veh, TAOK1 / RFU, ACBD3 / Fold change vs veh, ACBD3 / RFU, TMA16 / Fold change vs veh, TMA16 / RFU, RWDD3 / Fold change vs veh, RWDD3 / RFU, BCAT1 / Fold change vs veh, BCAT1 / RFU, EDEM3 / Fold change vs veh, EDEM3 / RFU, TMEM33 / Fold change vs veh, TMEM33 / RFU, WDR75 / Fold change vs veh, WDR75 / RFU, AHCTF1 / Fold change vs veh, AHCTF1 / RFU, TFRC / Fold change vs veh, TFRC / RFU, ZDHHC17 / Fold change vs veh, ZDHHC17 / RFU, NOM1 / Fold change vs veh, NOM1 / RFU, ARL8B / Fold change vs veh, ARL8B / RFU, ZBTB11 / Fold change vs veh, ZBTB11 / RFU, TAMM41 / Fold change vs veh, TAMM41 / RFU, KIAA1704 /// LOC100996395 / Fold change vs veh, KIAA1704 /// LOC100996395 / RFU, ING1 / Fold change vs veh, ING1 / RFU, TRMT61B / Fold change vs veh, TRMT61B / RFU, FUBP3 / Fold change vs veh, FUBP3 / RFU, TP53 / Fold change vs veh, TP53 / RFU, TNKS2 / Fold change vs veh, TNKS2 / RFU, ZFP14 / Fold change vs veh, ZFP14 / RFU, ACTR2 / Fold change vs veh, ACTR2 / RFU, PPP3R1 / Fold change vs veh, PPP3R1 / RFU, PIK3R1 / Fold change vs veh, PIK3R1 / RFU, HNRNPA1 / Fold change vs veh, HNRNPA1 / RFU, RNF170 / Fold change vs veh, RNF170 / RFU, ZNF28 / Fold change vs veh, ZNF28 / RFU, RNGTT / Fold change vs veh, RNGTT / RFU, OGT / Fold change vs veh, OGT / RFU, BRD1 / Fold change vs veh, BRD1 / RFU, MARS / Fold change vs veh, MARS / RFU, ZNF655 / Fold change vs veh, ZNF655 / RFU, FAHD1 / Fold change vs veh, FAHD1 / RFU, BDP1 / Fold change vs veh, BDP1 / RFU, LRRCC1 / Fold change vs veh, LRRCC1 / RFU, ARID1A / Fold change vs veh, ARID1A / RFU, ZNF146 / Fold change vs veh, ZNF146 / RFU, ZNF330 / Fold change vs veh, ZNF330 / RFU, GPN3 / Fold change vs veh, GPN3 / RFU, C9orf123 / Fold change vs veh, C9orf123 / RFU, N4BP2L2 / Fold change vs veh, N4BP2L2 / RFU, ARFIP1 / Fold change vs veh, ARFIP1 / RFU, FAM179B / Fold change vs veh, FAM179B / RFU, BCL10 / Fold change vs veh, BCL10 / RFU, UHRF1BP1L / Fold change vs veh, UHRF1BP1L / RFU, BET1 / Fold change vs veh, BET1 / RFU, CNOT2 / Fold change vs veh, CNOT2 / RFU, ZNF268 / Fold change vs veh, ZNF268 / Fold change vs veh, ZNF507 / RFU, DGCR2 / Fold change vs veh, DGCR2 / RFU, WDSUB1 / Fold change vs veh, WDSUB1 / Fold change vs veh, HSP90B1 /// MIR3652 / RFU, ADSS / Fold change vs veh, ADSS / RFU, GK / Fold change vs veh, GK / RFU, ZNF148 / Fold change vs veh, ZNF148 / RFU, TAF9 / Fold change vs veh, TAF9 / RFU, SLC1A5 / Fold change vs veh, SLC1A5 / RFU, SLMO2 / Fold change vs veh, SLMO2 / RFU, ABCC4 / Fold change vs veh, ABCC4 / RFU, LOC101060439 /// RAP1B / Fold change vs veh, LOC101060439 /// RAP1B / RFU, RFX7 / Fold change vs veh, RFX7 / RFU, GTPBP10 / Fold change vs veh, GTPBP10 / RFU, CNEP1R1 / Fold change vs veh, CNEP1R1 / RFU, BIVM-ERCC5 /// ERCC5 / Fold change vs veh, BIVM-ERCC5 /// ERCC5 / RFU, ILF3 / Fold change vs veh, ILF3 / RFU 11762660_at / Fold change /veh 11762660_at / RFU VCAN (11757783_s_at) / Fold change /veh VCAN (11757783_s_at) / RFU DDX43 (11728927_at) / Fold change /veh DDX43 (11728927_at) / RFU KRT8 (11758188_x_at) / Fold change /veh KRT8 (11758188_x_at) / RFU NKD1 (11759106_at) / Fold change /veh NKD1 (11759106_at) / RFU SRD5A1 (11742802_a_at) / Fold change /veh SRD5A1 (11742802_a_at) / RFU TPSAB1 /// TPSB2 (11721975_s_at) / Fold change /veh TPSAB1 /// TPSB2 (11721975_s_at) / RFU GSTM3 (11746129_a_at) / Fold change /veh GSTM3 (11746129_a_at) / RFU IL23R (11737362_x_at) / Fold change /veh IL23R (11737362_x_at) / RFU TMEM51 (11727254_a_at) / Fold change /veh TMEM51 (11727254_a_at) / RFU PIWIL2 (11732686_x_at) / Fold change /veh PIWIL2 (11732686_x_at) / RFU ORM1 (11744905_x_at) / Fold change /veh ORM1 (11744905_x_at) / RFU CCDC152 (11743942_at) / Fold change /veh CCDC152 (11743942_at) / RFU ECM1 (11717891_a_at) / Fold change /veh ECM1 (11717891_a_at) / RFU IL23R (11748794_a_at) / Fold change /veh IL23R (11748794_a_at) / RFU TNFAIP8L3 (11732012_x_at) / Fold change /veh TNFAIP8L3 (11732012_x_at) / RFU MBOAT4 (11741988_at) / Fold change /veh MBOAT4 (11741988_at) / RFU 11764193_at / Fold change /veh 11764193_at / RFU TMEM53 (11763286_at) / Fold change /veh TMEM53 (11763286_at) / RFU MAGEB2 (11727129_at) / Fold change /veh MAGEB2 (11727129_at) / RFU TMEM200A (11744735_a_at) / Fold change /veh TMEM200A (11744735_a_at) / RFU CCDC152 (11751479_a_at) / Fold change /veh CCDC152 (11751479_a_at) / RFU FAM211A (11726209_a_at) / Fold change /veh FAM211A (11726209_a_at) / RFU RGS16 (11746705_a_at) / Fold change /veh RGS16 (11746705_a_at) / RFU VCAN (11755009_s_at) / Fold change /veh VCAN (11755009_s_at) / RFU RHOB (11743442_s_at) / Fold change /veh RHOB (11743442_s_at) / RFU RGS16 (11720943_a_at) / Fold change /veh RGS16 (11720943_a_at) / RFU RGS16 (11720944_at) / Fold change /veh RGS16 (11720944_at) / RFU, VPS4B / Fold change vs veh, VPS4B / RFU, CREB1 / Fold change vs veh, CREB1 / RFU, DNAJC13 / Fold change vs veh, DNAJC13 / RFU, GNAQ / Fold change vs veh, GNAQ / RFU, CDK5R1 / Fold change vs veh, CDK5R1 / RFU, ZRANB3 / Fold change vs veh, ZRANB3 / RFU, CUL4A / Fold change vs veh, CUL4A / RFU, CCNY / Fold change vs veh, CCNY / RFU, UFL1 / Fold change vs veh, UFL1 / RFU, COG3 / Fold change vs veh, COG3 / RFU, DIAPH2 / Fold change vs veh, DIAPH2 / RFU, SKA2 / Fold change vs veh, SKA2 / RFU, AFF3 / Fold change vs veh, AFF3 / RFU, LMF1 / Fold change vs veh, LMF1 / RFU, IPO11 / Fold change vs veh, IPO11 / RFU, DFFB / Fold change vs veh, DFFB / RFU, FOXP1 / Fold change vs veh, FOXP1 / RFU, CARD8 / Fold change vs veh, CARD8 / RFU, STRN3 / Fold change vs veh, STRN3 / RFU, ADK / Fold change vs veh, ADK / RFU, RASSF2 / Fold change vs veh, RASSF2 / RFU, WIPF1 / Fold change vs veh, WIPF1 / RFU, LARP1B / Fold change vs veh, LARP1B / RFU, RASA1 / Fold change vs veh, RASA1 / RFU, RB1 / Fold change vs veh, RB1 / RFU, PPFIA1 / Fold change vs veh, PPFIA1 / RFU, MAT2A / Fold change vs veh, MAT2A / RFU, CCT5 / Fold change vs veh, CCT5 / RFU, WDR92 / Fold change vs veh, WDR92 / RFU, CUX1 / Fold change vs veh, CUX1 / RFU, TTC7A / Fold change vs veh, TTC7A / RFU, TMEM135 / Fold change vs veh, TMEM135 / RFU, DEPTOR / Fold change vs veh, DEPTOR / RFU, CPM / Fold change vs veh, CPM / RFU, DNAJB6 / Fold change vs veh, DNAJB6 / RFU, CACNA2D3 / Fold change vs veh, CACNA2D3 / RFU, DTX4 / Fold change vs veh, DTX4 / RFU, TFCP2 / Fold change vs veh, TFCP2 / RFU, GMCL1 /// GMCL1P1 / Fold change vs veh, GMCL1 /// GMCL1P1 / RFU, AEBP2 / Fold change vs veh, AEBP2 / RFU, SNHG1 /// SNORD22 /// SNORD25 /// SNORD26 /// SNORD27 /// SNORD28 /// SNORD29 /// SNORD31 / Fold change vs veh, SNHG1 /// SNORD22 /// SNORD25 /// SNORD26 /// SNORD27 /// SNORD28 /// SNORD29 /// SNORD31 / Fold change (Aza/veh), C12orf56 (ProbeSet 11735607_a_at) / Fold change (ACY-1035/veh), C12orf56 (ProbeSet 11735607_a_at) / Fold change (Aza/veh), FGFR1OP (ProbeSet 11751329_s_at) / Fold change (ACY-1035/veh), FGFR1OP (ProbeSet 11751329_s_at) / Fold change (Aza/veh), VPS36 (ProbeSet 11739960_a_at) / Fold change (ACY-1035/veh), VPS36 (ProbeSet 11739960_a_at) / RFU SYPL1 (11715823_x_at) / Fold change /veh SYPL1 (11715823_x_at) / RFU IGFBP7 (11715501_s_at) / Fold change /veh IGFBP7 (11715501_s_at) / RFU REEP3 (11722064_at) / Fold change /veh REEP3 (11722064_at) / RFU IGLL1 (11728026_x_at) / Fold change /veh IGLL1 (11728026_x_at): dose or concentration left out as unconfirmed
Conditions: ProbeSet 11728443_a_at; LIST B

Nc1ncn([C@@H]2O[C@H](CO)[C@@H](O)[C@H]2O)c(=O)n1 [azacitidine]
Fold change vs veh, TAOK1: 0.96
